# Columns and labels:
# [1] = target: T1, M1 muscarinic receptor (Homo sapiens, UniProt P11229); assay: Functional mobilization of intracellular calcium (FLIPR) in CHO cells expressing M1; format: cell-based; conditions: for EC50: CHO cells expressing M1, calcium mobilization; for Emax: CHO, 100% efficacy is the maximum response obtained with the Carbachol control
# T1 construct: expressed in transfected cells; host or cells: CHO
# T1 sequence (P11229 1-460): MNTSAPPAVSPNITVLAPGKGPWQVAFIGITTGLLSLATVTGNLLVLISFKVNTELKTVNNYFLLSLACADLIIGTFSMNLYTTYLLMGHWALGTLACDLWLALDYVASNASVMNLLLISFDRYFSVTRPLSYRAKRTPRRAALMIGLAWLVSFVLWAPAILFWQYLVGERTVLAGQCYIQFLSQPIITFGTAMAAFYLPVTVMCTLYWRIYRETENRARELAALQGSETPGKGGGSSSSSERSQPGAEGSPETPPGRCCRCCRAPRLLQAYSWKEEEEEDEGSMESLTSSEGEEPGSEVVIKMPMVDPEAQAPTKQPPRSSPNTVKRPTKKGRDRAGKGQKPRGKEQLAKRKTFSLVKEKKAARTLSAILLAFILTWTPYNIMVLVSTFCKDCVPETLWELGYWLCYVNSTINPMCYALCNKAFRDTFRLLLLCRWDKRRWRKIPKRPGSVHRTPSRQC
# Protocol: (§1) Functional Mobilization of Intracellular Calcium to Determine Muscarinic Receptor Activity:
# (§2) CHO cells expressing muscarinic receptors (M1 to M5) are grown as monolayers in tissue culture flasks at 37° C. in a humidified atmosphere containing 5% CO2 and passaged every 3-5 days. The growth media is Dulbecco's modified eagles medium (DMEM, Gibco Cat#12430-054), containing 25 mM Hepes and supplemented with Fetal Bovine Serum (Hyclone, Cat#SH30071.03), 0.1 mM of MEM non-essential amino acids (GIBCO, Cat#11140-050), 1 mM MEM Sodium Pyruvate (GIBCO Cat#11360-070) and 100 units/ml of Penicillin G and 100 μg/ml of Streptomycin (GIBCO Cat#15140-122). The recombinant muscarinic receptor cell lines are grown under antibiotic pressure with media containing 25 μg/ml zeocin and 500 μg/ml G418 (MI-CHO), 4 μg/ml puromycin, 50 μg/ml zeocin and 2.5 μg/ml blasticidin (M2 and M4-CHO) or 50 μg/ml zeocin and 4 μg/ml puromycin (M3 and M5-CHO).
# (§3) Cells are harvested at 80-90% confluence using Versene (GIBCO Cat#15040-066), collected by centrifugation and seeded 18-24 hours prior to running the calcium assay at a density of 5,000-10,000 cells/well in […], clear-bottomed 384-well plates (BD Biocoat, poly-D-lysine, Cat#356663). The day of the experiment, the cells are washed with a plate washer (Bioteck Instruments, ELX 405) using bath 1 buffer (140-mM NaCl, 4.5-mM KCl, 2-mM CaCl2, 1-mM MgCl2, 10-mM Hepes-Na, 10-mM Glucose, pH 7.4, with NaOH) containing 1 mM Probenecid. Next, the calcium dye Fluo-3 (25 μl well of Fluo-3 AM at 4 μM, Molecular Probes F-1241, in Bath 1 buffer containing 1 mM Probenecid) is added to the 25 μl of Bath 1 remaining in each well after the plate wash and the dye is loaded at 37° C. in the tissue culture incubator for 60-90 min. The fluorescent dye is removed using the plate washer with Bath 1 containing 1 mM Probenecid, leaving 25 μl/well of this solution after the wash. Alternatively, cells can be loaded with the calcium indicator from Molecular Devices (Calcium 3 Assay Reagents, Cat #R7181) adding 5 μl of a 5× solution dye in Bath 1 containing 1 mM Probenecid (10 ml per dye flask cat#R7182 to generate a solution 20×) to 20 μl of the same buffer. After loading for 60 min, the experiment can be run without having to remove the dye.
# (§4) Compounds are prepared at a 2× fold concentration in a 96-well plate (round bottom, Costar Corning cat#3656), by reconstituting the pre-spotted compounds in bath 1 containing 1 mM probenecid. The final concentration DMSO is 0.5%, and the amount of DMSO is normalized across the assay plate. To determine an agonist action of the compounds on muscarinic receptors, the reconstituted compounds are added (25 μl compound/well) to the cell assay plate (containing 25 μl/well) using the multi-channel robotic system of the FLIPR 3 Instrument (Molecular Devices, Sunnyvale, Calif.). To determine a functional inhibitory action of the compounds on muscarinic receptors, the reconstituted compounds are added (25 μl compound/well) to the assay plate and pre-incubated for 15 min prior to adding 25 μl of Carbachol at 3× the EC80 for each muscarinic subtype. Alternatively, the compounds can be co-applied simultaneously with the agonist. In both assay modes, the fluorescence is recorded for 60 sec (excitation wavelength is […] and emission wavelength 540 nm) using the FLIPR 3 instrument.
# (§5) The potency, efficacy and selectivity of the muscarinic compounds were evaluated by screening the compound activity across the whole family (M1 to M5 cells). Compounds were also screened for activity on other proteins such as other GPCRs and ion channels to determine selectivity on M4 receptors.
# (§6) Examples of activities and efficacies of the muscarinic compounds of formulae (I, I-A, and I-B) on modulating M1 and M4 receptors are shown below in Table 4. […]
# [2] = target: T2, M4 muscarinic receptor (Homo sapiens, UniProt P08173); assay: Functional mobilization of intracellular calcium (FLIPR) in CHO cells expressing M4; format: cell-based; conditions: for EC50: CHO cells expressing M4, calcium mobilization; for Emax: CHO, 100% efficacy is the maximum response obtained with the Carbachol control
# T2 construct: expressed in transfected cells; host or cells: CHO
# T2 sequence (P08173 1-479): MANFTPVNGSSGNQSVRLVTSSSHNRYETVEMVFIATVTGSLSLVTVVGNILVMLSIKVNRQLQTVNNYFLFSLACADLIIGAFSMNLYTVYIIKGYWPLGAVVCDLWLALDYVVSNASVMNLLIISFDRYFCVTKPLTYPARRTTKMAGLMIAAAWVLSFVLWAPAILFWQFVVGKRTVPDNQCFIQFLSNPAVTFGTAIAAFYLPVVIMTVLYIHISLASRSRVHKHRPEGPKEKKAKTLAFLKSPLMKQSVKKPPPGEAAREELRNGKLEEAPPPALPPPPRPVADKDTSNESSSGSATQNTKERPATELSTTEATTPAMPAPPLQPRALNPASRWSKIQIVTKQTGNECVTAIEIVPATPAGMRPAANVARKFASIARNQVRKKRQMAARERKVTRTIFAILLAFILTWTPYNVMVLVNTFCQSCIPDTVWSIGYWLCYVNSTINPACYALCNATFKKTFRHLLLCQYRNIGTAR
# Protocol: as §1, §2, §3, §4, §5, §6
structure (smiles),measurement,setting,value
O=C1CCC2(CCN(C3C[C@@H]4CC[C@@H]3C4)CC2)c2ccccc2N1 (some centres unmarked) [Compound 1],EC50,[1],< 2 µM
same,Emax,[1],> 100%
same,EC50,[2],< 2 µM
same,Emax,[2],25 to 100%
NC(=O)N1CCCC2(CCN(CC3CC4C=CC3C4)CC2)c2ccccc21 (centres unmarked) [Compound 2],EC50,[1],2 to 10 µM
same,Emax,[1],< 25%
same,EC50,[2],< 2 µM
same,Emax,[2],25 to 100%
CN1C(=O)CCC2(CCN(CCC(C)(C)C)CC2)c2ccccc21 [Compound 3],EC50,[1],2 to 10 µM
same,Emax,[1],25 to 100%
same,EC50,[2],< 2 µM
same,Emax,[2],25 to 100%
CCOC(=O)N1C2CCC1CC(N1CCC3(CCC(=O)Nc4ccccc43)CC1)C2 (centres unmarked) [Compound 4],EC50,[1],< 2 µM
same,Emax,[1],25 to 100%
same,EC50,[2],< 2 µM
same,Emax,[2],25 to 100%
O=C1CCC2(CCN(CC3CC4C=CC3C4)CC2)c2ccccc2N1 (centres unmarked) [Compound 5],EC50,[1],2 to 10 µM
same,Emax,[1],25 to 100%
same,EC50,[2],< 2 µM
same,Emax,[2],25 to 100%
NC(=O)N1CCCC2(CCN(C3CCCCCC3)CC2)c2ccccc21 [Compound 6],EC50,[1],> 10 µM
same,Emax,[1],< 25%
same,EC50,[2],> 10 µM
same,Emax,[2],< 25%
CC(=O)N1CCCC2(CCN(CC3CCCCC3)CC2)c2ccccc21 [Compound 7],EC50,[1],> 10 µM
same,Emax,[1],< 25%
same,EC50,[2],2 to 10 µM
same,Emax,[2],< 25%
CCOC(=O)N1CCC(N2CCC3(CCCN(C(N)=O)c4ccccc43)CC2)CC1 [Compound 8],EC50,[1],< 2 µM
same,Emax,[1],25 to 100%
same,EC50,[2],2 to 10 µM
same,Emax,[2],25 to 100%
CC(=O)N1CCCC2(CCN(CC3CC4C=CC3C4)CC2)c2ccccc21 (centres unmarked) [Compound 9],EC50,[1],> 10 µM
same,Emax,[1],< 25%
same,EC50,[2],< 2 µM
same,Emax,[2],25 to 100%
CCOC(=O)N1C2CCC1CC(N1CCC3(CCCN(C(=O)N(C)C)c4ccccc43)CC1)C2 (centres unmarked) [Compound 10],EC50,[1],> 10 µM
same,Emax,[1],< 25%
same,EC50,[2],2 to 10 µM
same,Emax,[2],< 25%
CN(C)C(=O)N1CCCC2(CCN(C3CCCCCC3)CC2)c2ccccc21 [Compound 11],EC50,[1],> 10 µM
same,Emax,[1],< 25%
same,EC50,[2],> 10 µM
same,Emax,[2],< 25%
CN1C(=O)CCC2(CCN(C3CCCCCC3)CC2)c2ccccc21 [Compound 12],EC50,[1],2 to 10 µM
same,Emax,[1],25 to 100%
same,EC50,[2],< 2 µM
same,Emax,[2],25 to 100%
CC(C)(C)CCN1CCC2(CCCN(C(N)=O)c3ccccc32)CC1 [Compound 13],EC50,[1],2 to 10 µM
same,Emax,[1],25 to 100%
same,EC50,[2],< 2 µM
same,Emax,[2],25 to 100%
CCOC(=O)N1CCC(N2CCC3(CCCN(C(C)=O)c4ccccc43)CC2)CC1 [Compound 14],EC50,[1],< 2 µM
same,Emax,[1],25 to 100%
same,EC50,[2],< 2 µM
same,Emax,[2],25 to 100%
CN(C)C(=O)N1CCCC2(CCN(CC3CC4C=CC3C4)CC2)c2ccccc21 (centres unmarked) [Compound 15],EC50,[1],> 10 µM
same,Emax,[1],< 25%
same,EC50,[2],< 2 µM
same,Emax,[2],25 to 100%
NC(=O)N1CCCC2(CCN(C3CC4CCC(C4)C3)CC2)c2ccccc21 (centres unmarked) [Compound 16],EC50,[1],2 to 10 µM
same,Emax,[1],25 to 100%
same,EC50,[2],< 2 µM
same,Emax,[2],25 to 100%
CC(=O)N1CCCC2(CCN(C3C[C@@H]4CC[C@@H]3C4)CC2)c2ccccc21 (some centres unmarked) [Compound 17],EC50,[1],> 10 µM
same,Emax,[1],< 25%
same,EC50,[2],> 10 µM
same,Emax,[2],< 25%
CCOC(=O)N1CCC(N2CCC3(CCC(=O)Nc4ccccc43)CC2)CC1 [Compound 18],EC50,[1],< 2 µM
same,Emax,[1],25 to 100%
same,EC50,[2],< 2 µM
same,Emax,[2],25 to 100%
"CN1C(=O)CCC2(CCN(C3CC4CCC(C4)C3)CC2)c2ccccc21 (centres unmarked) [Compound 19, 1′-(bicyclo[3.2.1.]octan-3-yl)-1-methyl-3,4-dihydrospiro[benzo[b]azepine-5,4′-piperidin]-2(1H)-one]",EC50,[1],< 2 µM
same,Emax,[1],25 to 100%
same,EC50,[2],< 2 µM
same,Emax,[2],25 to 100%
NC(=O)N1CCCC2(CCN(CC3CCCCC3)CC2)c2ccccc21 [Compound 20],EC50,[1],> 10 µM
same,Emax,[1],< 25%
same,EC50,[2],2 to 10 µM
same,Emax,[2],< 25%
CCOC(=O)N1CCC(N2CCC3(CCC(=O)N(C)c4ccccc43)CC2)CC1 [Compound 21],EC50,[1],2 to 10 µM
same,Emax,[1],25 to 100%
same,EC50,[2],2 to 10 µM
same,Emax,[2],25 to 100%
CCOC(=O)N1C2CCC1CC(N1CCC3(CCCN(C(N)=O)c4ccccc43)CC1)C2 (centres unmarked) [Compound 22],EC50,[1],< 2 µM
same,Emax,[1],25 to 100%
same,EC50,[2],< 2 µM
same,Emax,[2],25 to 100%
CCOC(=O)N1CCC(N2CCC3(CCCN(C(=O)N(C)C)c4ccccc43)CC2)CC1 [Compound 23],EC50,[1],2 to 10 µM
same,Emax,[1],25 to 100%
same,EC50,[2],< 2 µM
same,Emax,[2],25 to 100%
"O=C1CCC2(CCN(C3CCCCCC3)CC2)c2ccccc2N1 [Compound 24, 1′-cycloheptyl-3,4-dihydrospiro[benzo[b]azepine-5,4′-piperidin]-2(1H)-one]",EC50,[1],< 2 µM
same,Emax,[1],25 to 100%
same,EC50,[2],< 2 µM
same,Emax,[2],25 to 100%
CN(C)C(=O)N1CCCC2(CCN(C3CC4CCC(C4)C3)CC2)c2ccccc21 (centres unmarked) [Compound 25],EC50,[1],> 10 µM
same,Emax,[1],< 25%
same,EC50,[2],< 2 µM
same,Emax,[2],25 to 100%
NC(=O)N1CCCC2(CCN(C3C[C@@H]4CC[C@@H]3C4)CC2)c2ccccc21 (some centres unmarked) [Compound 26],EC50,[1],> 10 µM
same,Emax,[1],< 25%
same,EC50,[2],> 10 µM
same,Emax,[2],< 25%
CN(C)C(=O)N1CCCC2(CCN(CC3CCCCC3)CC2)c2ccccc21 [Compound 27],EC50,[1],> 10 µM
same,Emax,[1],< 25%
same,EC50,[2],> 10 µM
same,Emax,[2],< 25%
CCOC(=O)N1C2CCC1CC(N1CCC3(CCCN(C(C)=O)c4ccccc43)CC1)C2 (centres unmarked) [Compound 28],EC50,[1],< 2 µM
same,Emax,[1],25 to 100%
same,EC50,[2],< 2 µM
same,Emax,[2],25 to 100%
O=C1CCC2(CCN(C3CC4CCC(C4)C3)CC2)c2ccccc2N1 (centres unmarked) [Compound 29],EC50,[1],< 2 µM
same,Emax,[1],25 to 100%
same,EC50,[2],< 2 µM
same,Emax,[2],25 to 100%

# — patent publication US7786107B2, “Modulators of muscarinic receptors” (Vertex Pharmaceuticals Incorporated, priority 2006, dated 2010)
